Tests used:
[1] = tested on: JIMT-1 cell line; assay: DNA content analysis by flow cytometry (PI), JIMT-1; format: cell-based, human; settings: 0.1, 0.25 and 0.5 μM for 72 hours
Protocol: (§1) The degree of apoptosis of cancer cells induced by the thiobenzimidazole derivative of Chemical Formula 1-3 was measured through DNA content analysis using a flow cytometry. The SKBR3, BT474 and JIMT-1 cell lines were treated with a control (DMSO) and the derivative of Chemical Formula 1-3 at concentrations of 0.1, 0.25 and 0.5 μM for 72 hours, and then the cells were harvested, immobilized with 95% ethanol containing 0.5% Tween-20 for 24 hours, and then stained with propidium iodide (PI, 50 μg/mL) and RNase (50 μg/mL) for 30 minutes. Thereafter, the degree of apoptosis of cancer cells was analyzed using a flow cytometer.
(§2) The result of such apoptosis was shown on the cell cycle as a Sub G1 site, and the ratio of Sub G1 was expressed numerically and shown in FIG. 8.

[2] = tested on: HER2-positive breast cancer cell line SKBR3; assay: Cell viability assay, SKBR3; format: cell-based; settings: SKBR3 (sensitive to Trastuzumab); 72 hours
[3] = tested on: HER2-positive breast cancer cell line BT474; assay: MTS cell viability assay, BT474; format: cell-based; settings: 72 hours
Protocol: In the human breast cancer cell lines MDA-MB-231 and JIMT-1, thiobenzimidazole derivatives of Chemical Formulas 1-1, 1-2, 1-3, 1-5, 1-6, 1-7, 1-8, 1-1-11, 1-12, 1-13, 1-14, 1-15, 1-16, 1-17, 1-19, 1-20, 1-21, and 1-22 were treated at various concentrations of 0, 0.5, 1, and 5 μM for 72 hours, respectively, and then cell viability was measured by an MTS assay. In the MTS assay, the cells were attached to a 96 well plate for 24 hours, treated with the thiobenzimidazole derivatives for 72 hours, and then developed with MTS (3-(4,5-dimethylthiazol-2-yl)-5-(3-carboxymethoxyphenyl)-2-(4-sulfophenyl)-2H-tetrazolium) for 4 hours, and then absorbance was measured at 490 nm using a Spectramax Plus384 microplate analyzer. […] The HER2-positive breast cancer cell line BT474 sensitive to Trastuzumab and the HER2-positive breast cancer cell line JIMT-1 resistant to Trastuzumab were treated with the thiobenzimidazole derivative of Chemical Formula 1-3 prepared above and its hydrochloride (Compound 1-23) at the same concentrations of […], 0.1, 0.5, 1, 5, and 10 μM for 72 hours, and then cell viability and IC50 were measured by an MTS assay.

[4] = tested on: HER2-positive breast cancer cell line JIMT-1; assay: MTS cell viability assay, JIMT-1; format: cell-based, human; settings: 72 hours
Protocol: A human triple-negative breast cancer (TNBC) cell line MDA-MB-231 (Cell seeding numbers: 1(M231)×10^4 cells/wells (confluency ≥25%) and an HER2-positive breast cancer (HER2+BC) cell line JIMT-1 (Cell seeding numbers: 1.2 (JIMT)×10^4 cells/wells (confluency ≥25%) were used in the experiment.
The cell lines were cultured in a Dulbecco's modified Eagle's medium (DMEM) containing 10% fetal bovine serum (FBS), streptomycin-penicillin (100 U/mL) and Fungizone (0.625 μg/mL) in an environment of 5% CO2 and 37° C., respectively.
In the human breast cancer cell lines MDA-MB-231 and JIMT-1, thiobenzimidazole derivatives of Chemical Formulas 1-1, 1-2, 1-3, 1-5, 1-6, 1-7, 1-8, 1-1-11, 1-12, 1-13, 1-14, 1-15, 1-16, 1-17, 1-19, 1-20, 1-21, and 1-22 were treated at various concentrations of 0, 0.5, 1, and 5 μM for 72 hours, respectively, and then cell viability was measured by an MTS assay. In the MTS assay, the cells were attached to a 96 well plate for 24 hours, treated with the thiobenzimidazole derivatives for 72 hours, and then developed with MTS (3-(4,5-dimethylthiazol-2-yl)-5-(3-carboxymethoxyphenyl)-2-(4-sulfophenyl)-2H-tetrazolium) for 4 hours, and then absorbance was measured at 490 nm using a Spectramax Plus384 microplate analyzer. […]

[5] = tested on: BT474 cell line; assay: DNA content analysis by flow cytometry (PI), BT474; format: cell-based; settings: 0.1, 0.25 and 0.5 μM for 72 hours
Protocol: as §1, §2

[6] = tested on: cancer cells; assay: Annexin V/PI staining; format: cell-based; settings: 0.1, 0.25, and 0.5 μM for 72 hours
Protocol: In addition, in order to confirm the apoptosis-inducing effect of the derivative of Chemical Formula 1-3, the control (DMSO) and the derivative of Chemical Formula 1-3 were treated at concentrations of 0.1, 0.25, and 0.5 μM for 72 hours, and then the degree of apoptosis was confirmed by Annexin V/PI staining.

[7] = tested on: SKBR3 cell line; assay: DNA content analysis by flow cytometry (PI), SKBR3; format: cell-based; settings: 0.1, 0.25 and 0.5 μM for 72 hours
Protocol: as §1, §2

In the case of `COC(=O)Nc1nc2cc(Sc3ccc(F)cc3)ccc2[nH]1` [Chemical Formula 1-1, methyl 5-(4-fluorophenyl-thio)-1H-benzo[d]imidazol-2-ylcarbamate], the melting point is reported as 232 to 233 °C.

With `COC(=O)Nc1nc2cc(Sc3ccc(N4CCN(C)CC4)cc3)ccc2[nH]1` [Chemical Formula 1-3, methyl (5-((4-(4-methylpiperazin-1-yl)phenyl)thio)-1H-benzo[d]imidazol-2-yl) carbamate] the “G2/M phase cell cycle arrest” value [1] was “arrested the G2/M phase cell cycle”, the “apoptosis (Sub-G1 population)” value [1] was “significantly induced apoptosis (Sub-G1 population)” and the “inhibitory effect on cell proliferation” value [2] was “inhibitory effect on cell proliferation was exhibited”. For the same molecule, the “inhibitory effect on cell proliferation” value ([3]; BT474 (sensitive to Trastuzumab)) was “inhibitory effect on cell proliferation was exhibited”, the IC50 ([3]; Homo sapiens, BT-474, BT474, MTS) was 2180 nM and the IC50 ([4]; Homo sapiens, JIMT-1, MTS) was 448 nM. For the same molecule, the “inhibitory effect on cell proliferation” value ([4]; JIMT-1 (resistant to Trastuzumab)) was “inhibitory effect on cell proliferation was exhibited”, the “G2/M phase cell cycle arrest” value [5] was “arrested the G2/M phase cell cycle” and the “apoptosis (Sub-G1 population)” value [5] was “significantly induced apoptosis (Sub-G1 population)”. For the same molecule, the “early and late apoptosis (Annexin V/PI)” value [6] was “early and late apoptosis were effectively induced in a concentration-dependent manner”, the “G2/M phase cell cycle arrest” value [7] was “arrested the G2/M phase cell cycle” and the “apoptosis (Sub-G1 population)” value [7] was “significantly induced apoptosis (Sub-G1 population)”.
